# From a melting point compilation (Tetko et al.; mined from patent text by program, amines drawn as free bases though some values may be those of a salt)
row,melting point [°C],Compound
1,149 to 150,CCOC(OCC)c1cc(NC(c2ccccc2)(c2ccccc2)c2ccccc2)c(F)c(C2CCCO2)n1 (stereo unspecified)
2,119 to 122,COC(=O)C1(c2ccc(OCCN)cc2)CC1
3,51 to 52,Fc1ccc(N=Cc2ccccc2)c(F)c1
4,201 to 206,Cn1cc(C(=O)NCCCN)c(Nc2ccc(I)cc2F)cc1=O
5,47 to 49,c1ccc(COc2cccc3sncc23)cc1
6,147 to 150,c1ccc(-n2nnc3c4ccccc4c(OCc4ccccn4)nc32)cc1
7,224 to 226,O=C(Nc1ccc(I)cc1)N[C@H]1C[C@H](C(=O)O)Nc2cc(Cl)cc(Cl)c21 (relative stereo)
8,74 to 78,COc1ccc(OCC2CCC(CBr)CC2)c(Cl)c1 (stereo unspecified)
9,190 to 192,COc1cc(COc2cccc3c2CN(C2CCC(=O)NC2=O)C3=O)ccc1OCCN(C)C (stereo unspecified)
10,175 to 177,CC(C)NC(=O)C(O)C(Oc1ccccc1)c1ccc(Cl)cc1 (stereo unspecified)
11,205 to 207,Cc1sc(C)c2c1CCC=C2c1cn(C(c2ccccc2)(c2ccccc2)c2ccccc2)cn1
12,135 to 138,CSc1ccc(C2=CC(=O)C3(CCOCC3)O2)cc1
13,268 to 270,CCOC(=O)COc1ccc([N+](=O)[O-])c(C=C2NC(=O)NC2=O)c1
14,50 to 51,O=[N+]([O-])C=C(NCCSCc1nccs1)NCCSCc1nccs1
15,90 to 92,CCCCOCCOc1ccc(-c2cnc(N3CC(C)C(C)C3)c(/C=C(\C)C(=O)O)c2)cc1 (stereo unspecified)
16,146,COCOc1c(Cl)ccc(-c2cc(NC(C)=O)c(Cl)c(C(=O)OC)n2)c1F
17,81.4 to 87.2,Cc1ncccc1CN1CCC(=C2c3ccc(Cl)cc3CCc3cccnc32)CC1
18,134 to 136,Cc1cccc2c(-c3ccc(Cl)cc3)onc12
19,274 to 277,Cc1c(F)c(F)cc2c(=O)c(C(=O)O)cn(-c3nc(N)c(F)cc3F)c12
20,116,Cc1ccc(S(=O)(=O)N2[C@@H](CC#N)CC[C@H]2c2ccc(F)cc2)cc1 (racemic)
21,174 to 175,CCCOc1ccc(CO)cc1-c1nc2c(CCC)nn(C)c2c(=O)[nH]1
22,227 to 230,O=C(CCCCc1ccccc1)Nc1ccc(C(=O)O)cc1
23,152 to 154,CCC1(C)CN(c2c(F)cc3c(=O)c(C(=O)O)cn(C4CC4)c3c2OC)CCC1N (stereo unspecified)
24,106 to 108,Cc1c(/C=N/OCCCOc2ccc(CC(=O)O)cc2)c2ccccc2n1C

row,melting point [°C],Compound
1,144 to 145,C=CCN1C(=O)c2cccc3c(OCCO)ccc(c23)C1=O
2,150 to 153,Cc1ncc(CN2CCc3ccccc3C2)c(N)n1
3,101 to 103,CCCCCCCCCCCCCCCC(=O)OC(CCCCCCCCCCCCCC)C(=O)N[C@H](C(=O)N[C@@H](CCC(=O)O)C(=O)O)C(C)C (stereo partly specified)
4,175 to 176,CC(C)(C)OC(=O)COc1ccc(-c2c(Cl)c(CN3C(=O)CCC3=O)nc3sc4c(c23)CCS(=O)C4)cc1 (stereo unspecified)
5,262 to 263,COc1cc(OC)c2c(=O)[nH]c(-c3cc(C)c(OC)c(C)c3)cc2n1
6,197,CCc1c(C(=O)NNC(=O)C(O)c2cc(F)cc(F)c2)ccc(OC)c1C (stereo unspecified)
7,138 to 139,COC(Cc1c(Br)cc(Br)c(C(N)=O)c1Br)C(=O)O (stereo unspecified)
8,72 to 74,COC(=O)c1ccc(/C=C(\C)c2ccc3c(c2)OC(C)(C)O3)cc1
9,146 to 148,CC(C(=O)O)c1ccc(CC2CCCC2=NO)cc1 (stereo unspecified)
10,164 to 166,CCCCc1c2c(nn1CCC)c(N)nc1ccccc12
11,190 to 192,NS(=O)(=O)c1ccc(-c2cc(F)c(F)cc2-c2ccc(F)cc2)cc1
12,208 to 209,Oc1ccc(C2(c3ccc(O)cc3)c3ccccc3C(c3ccc(O)cc3)(c3ccc(O)cc3)c3ccccc32)cc1
13,172 to 174,NC(=O)c1cc(COc2ccc([N+](=O)[O-])cc2)ccn1
14,176 to 177,CC(c1ccc(S(C)(=O)=O)cn1)C(O)(Cn1cncn1)c1ccc(F)cc1F (stereo unspecified)
15,176 to 178,COc1ccc2c3c(c(=O)oc2c1)CN(Cc1ccc([N+](=O)[O-])cc1)CC3
16,128 to 129,CCOC(=O)COc1cc(F)c(C)cc1C(=O)NCc1ccc(Br)cc1F
17,196 to 198,CN1C2=C(CSC2)C(=O)Nc2ccccc21
18,131 to 132,CC(=O)Nc1cc(F)ccc1S(=O)(=O)CC#N
19,146 to 148,COc1ccc(-n2nc(Sc3ccc(Cl)cc3)c(C)c(C#N)c2=O)cc1
20,132 to 135,CCN(CC)C(=O)c1ccc(C)c(-c2nc(S(C)(=O)=O)nc3c2CNC(=O)N3c2c(F)cccc2F)c1
21,92 to 93,COc1cccc(CC(=O)O)c1OCCCc1cn(-c2ccc(C(F)(F)F)nn2)nc1C(C)C
22,96 to 102,Cc1nc(-c2ccc(-c3ccccc3S(=O)(=O)Nc3onc(C)c3C)cc2)oc1C
23,205 to 207,N#Cc1cnc2cc3c(cc2c1Cl)ncn3CCN1CCOCC1
24,270,CCCn1c(=O)c2[nH]c(/C=C/c3cccs3)nc2n(CCC)c1=O

row,melting point [°C],Compound
1,191 to 192,COC(=O)C(=CNc1ccc(O)cc1)C(=O)C=Cc1ccc2ccccc2c1
2,99 to 101,NC(=S)NCc1cccs1
3,157,COP(=O)(OC)C(O)C(CC1CCCCC1)NC(=O)C(CC(C)C)NC(=O)OC(C)(C)C (stereo unspecified)
4,63 to 65,O=C(NCCOCCO[N+](=O)[O-])c1cncs1
5,129 to 130,Cn1nc(-c2c(F)cccc2Cl)nc1-c1sc(Cl)c(Cl)c1Cl
6,194,O=C(Nc1ccc2ccc(Oc3ccccc3)nc2n1)c1cccc(Br)c1
7,> 330,O=C1NCc2c1c1c3cc(O)ccc3[nH]c1c1[nH]c3ccc(O)cc3c21
8,140 to 143,COC(=O)c1occc1CN1C(=O)c2ccccc2C1=O
9,189 to 192,CCOc1c(-c2nnn[nH]2)oc2c3ccccc3n(-c3ccccc3)c12
10,190 to 191,Fc1ccc(Nc2nc3ccccc3o2)cc1C(F)(F)F
11,129 to 131,CC(=NNC(=S)N1CCCCCC1)c1ccc2ccccc2n1
12,89 to 91,COCCNc1cccc(C(N)=O)c1
13,90 to 92,Cc1ccc(Sc2ccnc3sccc23)cc1
14,120 to 121,Clc1ccc2c(c1)C(c1ccccc1Cl)=NCc1cncnc1-2
15,213 to 214,Cc1ccc(Oc2ccccc2-c2noc(=O)[nH]2)c(O)c1
16,314 to 315,Oc1cc(C(F)(F)F)nc2cccc(C(F)(F)F)c12
17,194 to 195,COC(=O)c1ccc2c(c1)ncn2N
18,180 to 182,O=C(O)c1cc(OCC(=O)c2ccccc2)cc(C(F)(F)F)c1
19,103 to 108,COc1cccc(CCNC(=O)N2CCC(Nc3ccc(CCNC[C@H](O)COc4ccc(O)cc4)cc3)CC2)c1
20,209 to 210,O=C1C2=C(OCCO2)C(=O)c2cc(Cl)ccc21
21,105,Cc1ccnc(-c2ccc(C)c(-c3ccccc3)n2)n1
22,226,O=C(c1ccc(F)cc1)c1ccc2[nH]c(=O)nc(-c3cccc(Cl)c3)c2c1
23,119 to 129,CC(CS)C(=O)N1CC2CCCCC2C1C(=O)O (stereo unspecified)
24,241 to 243,Cc1oc(-c2ccc(C(F)(F)F)cc2)nc1-c1ccc(-c2cc(Br)c(OC(Cc3ccccc3)C(=O)O)c(Br)c2)cc1 (stereo unspecified)

row,melting point [°C],Compound
1,138 to 141,CCOC(=O)CC(=O)Nc1nc(C)cs1
2,165,O=C(C=Cc1cccc(S(=O)(=O)NCc2ccco2)c1)NO
3,258 to 260,O=c1[nH]ncc2[nH]c(-c3ccc(OC(F)F)c(OCC4CC4)c3)c(Cl)c12
4,92 to 100,Cc1ccc(C(=O)CC(O)C(=O)O)cc1 (stereo unspecified)
5,109 to 111,C=C(Sc1ccc(Br)cc1)S(=O)(=O)c1cccc([N+](=O)[O-])c1
6,53 to 54.5,O=CN(Cc1ccccc1)Cc1ccccc1
7,189 to 191,COc1cccc(NC(=O)c2ccc([N+](=O)[O-])cc2)c1
8,64 to 65,CCOC(=O)CNC(=O)N(CC(=O)OCC)Cc1ccccc1
9,120,CC#CCOc1ccc(S(=O)(=O)C(C(=O)OCC)C2CCN(C(=O)c3ccccc3)CC2)cc1 (stereo unspecified)
10,55,Cc1cc(C(=O)CCc2cc(-c3ccc(C(F)(F)F)cc3)nn2Cc2ccccc2)ccc1OC(C)(C)C(=O)O
11,193,CC(=O)Nc1nc(C(Cl)(Cl)Cl)ns1
12,226 to 227,Cc1cc(Cl)c2c(c1)C=C(C(=O)O)C(C(F)(F)F)O2 (stereo unspecified)
13,146 to 147,COC(CCC(C)C1CCC2C3C(OC(C)=O)CC4CC(OC(C)=O)CCC4(C)C3CC(=O)C12C)=NNS(=O)(=O)c1ccc(C)cc1 (stereo unspecified)
14,93 to 95,OCCCCOc1cnc(-c2ccccc2)c(-c2ccccc2)n1
15,122 to 124,CN1CCC2(CC1)OC(c1ccc(Cl)cc1)C1CCCCN12 (stereo unspecified)
16,56.8,CSc1cc(-c2ccccc2)nc(-c2cccc(CCl)c2)c1
17,86 to 90,CCN(C)C(=O)[C@H]1O[C@@H](n2cnc3c(N)ncnc32)[C@H](O)[C@@H]1O
18,144 to 146,CC1=C(c2ccncc2)SC(C)C(=O)N1 (stereo unspecified)
19,146 to 148,NS(=O)(=O)c1cccc2c1CSC2
20,251 to 253,Cc1cc2c3c(cccc3c1)C(=O)N(O)C2=O
21,161,CCOc1ccc2nc(CO)n(C)c2n1
22,140 to 143,O=C1C=C(c2c(Br)cc(Br)cc2Br)C(=O)N1
23,105 to 106,"Cc1ccccc1Sc1ccc2c(c1)CCC1N(C)C(=O)CCC21C (single isomer, unassigned; (+))"

row,Compound,melting point [°C]
1,[N-]=[N+]=C1C(=O)CCc2ccccc21,42.5 to 44.2
2,O=C(CCl)Nc1csc(Br)n1,146 to 148
3,Cc1nnc2n1-c1sc(C#Cc3ccccc3)cc1C(c1ccccc1Cl)=NC2,215 to 217
4,CN1C(=O)C(NC(=O)Nc2cccc(Br)c2)N=C(c2ccccc2)c2ccccc21 (stereo unspecified),194 to 196
5,COc1cc2[nH]c(C)c(CCN3CCN(NC(=O)c4ccc(F)cc4)CC3)c2cc1OC,116 to 119
6,Cc1nc(C#N)c2n1-c1ccc(Cl)cc1C(c1ccccc1)=NC2,228 to 229
